Reference: the NIST ThermoML archive (doi:10.1016/j.fluid.2006.09.019)
Numbers after ± are expanded uncertainties.

Conditions: Liquid

COC(=O)CO [methyl hydroxyethanoate]
vapor or sublimation pressure (293.23 K): 0.4864 ± 0.077 kPa
vapor or sublimation pressure (303.17 K): 0.8459 ± 0.12 kPa
vapor or sublimation pressure (313.27 K): 1.409 ± 0.16 kPa
vapor or sublimation pressure (323.12 K): 2.311 ± 0.18 kPa
vapor or sublimation pressure (333.28 K): 3.738 ± 0.22 kPa
vapor or sublimation pressure (343.26 K): 5.905 ± 0.27 kPa
vapor or sublimation pressure (353.25 K): 9.292 ± 0.36 kPa
